According to US5686424A, “2-oxoethyl derivatives as immunosuppressants” (Miles Inc., priority 1995, dated 1997):
pIC50: −log10 of the molar value. Read-outs that look alike come from different tables or passages of the source.

Experiments:
NF-AT = NF-AT Inhibition Assay Directed β-Galactosidase Expression in FGL-5 cells; type: cell-based; settings: 50% inhibition of NF-AT directed β-galactosidase activity in FGL-5 cells stimulated with phorbol dibutyrate and ionomycin; TABLE 3
Procedure, shortened: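 FGL-5 Jurkat cells (3 million cells/ml) carry NF-AT-site-driven lacZ. They were stimulated with phorbol dibutyrate plus ionomycin and incubated with compound 16-18 h at 37 °C, in duplicate wells with matched ethanol or DMSO vehicle controls. β-Galactosidase was read as fluorescence from 4-methylumbelliferyl-β-D-galactoside cleavage, giving percent inhibition.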

human T-cells = experiment: Suppression of Human T-Cell Proliferation Assay (PHA-stimulated, [3H]-thymidine incorporation); type: cell-based; settings: TABLE 2
Procedure, shortened: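 Read-out is scintillation counting of [3H]-thymidine pulsed for the last 6 h of a 72 h, 37° C culture. Human T-cells, isolated from LeukoPaks by Lymphoprep and sheep-erythrocyte rosetting, were PHA-M activated (40 μg/ml stock) with compound dilutions added in duplicate wells.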

[1] = read-out: concentrations that suppress the T-cell proliferative response by 50%
[2] = concentration inhibiting [3H]-thymidine incorporation of PHA-stimulated T-cells by 50%, 72 hours, read-out: IC50

Row | SMILES | pIC50 (NF-AT) | pIC50 (human T-cells; [1]) | pIC50 (human T-cells; [2])
1 | CC[C@H](C)[C@H](NC(=O)[C@@H]1CCCN1CC(=O)NC12CC3CC(CC(C3)C1)C2)C(=O)NCc1ccccc1 [Example 39, L-Isoleucine, N-[1-(2-Aminoadamant-1-yl-2-oxoethyl)-L-Prolyl] Benzylamide] | 4.39 | > 5.00 | 5.22
2 | CC[C@H](C)[C@H](NC(=O)[C@@H]1CCCN1CC(=O)C12CC3CC(CC(C3)C1)C2)C(=O)N[C@H](C)c1ccccc1 [Example 66, L-Isoleucine, N-[1-(2-Adamantan-1-yl-2-Oxoethyl)-L-Prolyl] alpha-(R)-methylbenzylamide] | 4.24 | > 5.00 | 5.52
3 | CC[C@H](C)[C@H](NC(=O)[C@@H]1CCCN1CC(=O)NC1C2CC3CC(C2)CC1C3)C(=O)NCc1ccccc1 (stereo partly drawn) [Example 90, L-Isoleucine, N-[1-(Adamantan-2-ylcarbamoylmethyl)-L-Prolyl] Benzylamide] | < 4.00 | > 5.00 | 5.22
4 | CC[C@H](C)[C@H](NC(=O)[C@@H]1CCCN1CC(=O)O[C@H](c1ccccc1)C(C)C)C(=O)NCc1ccccc1 [Example 92, L-Isoleucine, N-[1-(2-(2-Methyl-1-(S)-Phenyl-1-Propoxy)-2-Oxoethyl)-L-Prolyl] Benzylamide] | 4.36 | > 5.00 | 5.22

These reach a higher pIC50 (NF-AT). Values come first.

Row | pIC50 (NF-AT) | SMILES | pIC50 (human T-cells; [1]) | pIC50 (human T-cells; [2])
5 | 4.89 | CC[C@H](C)[C@H](NC(=O)[C@@H]1CCCN1CC(=O)C1CC2CC(C1C)C2(C)C)C(=O)NCc1ccccc1 (stereo partly drawn) [Example 41, L-Isoleucine, N-[1-[2-(2,6,6-Trimethyl-Bicyclo[3.1.1]hept-3-yl)-2-Oxoethyl]-L-Prolyl] Benzylamide] | > 5.00 | 5.22
6 | 4.89 | O=C(NCc1ccccc1)[C@H](COCc1ccccc1)NC(=O)[C@@H]1CCCN1CC(=O)C12CC3CC(CC(C3)C1)C2 [Example 62, L-Serine-(O-Benzyl Ether), N-[1-(2-Adamantan-1-yl-2-Oxoethyl)-L-Prolyl] Benzylamide] | > 5.00 | 5.40
7 | 4.70 | O=C(CC(NC(=O)[C@@H]1CCCN1CC(=O)C12CC3CC(CC(C3)C1)C2)c1ccccc1)NCc1ccccc1 (stereo partly drawn) [Example 63, L-β-Phenylalanine, N-[1-(2-Adamantan-1-yl-2-Oxoethyl)-L-Prolyl] Benzylamide] | > 5.00 | 5.22
8 | 4.72 | CC[C@H](C)[C@H](NC(=O)[C@@H]1CCCN1CC(=O)O[C@@H](c1ccccc1)C(C)C)C(=O)NCc1ccccc1 [Example 93, L-Isoleucine, N-[1-(2-(2-Methyl-1-(R)-Phenyl-1-Propoxy)-2-Oxoethyl)-L-Prolyl] Benzylamide] | > 5.00 | 5.22
